As a reminder, the Ki is a dissociation constant, usually derived from enzyme kinetics or from competition with a known ligand.

The record followed here is patent EP0999856B1, “RADIOPHARMACEUTICALS FOR IMAGING INFECTION AND INFLAMMATION” (Bristol-Myers Squibb Pharma Company, priority 1996, dated 1998).

Molecules are shown by their SMILES.

The assay concerns the target PMN LTB4 receptor (Homo sapiens, UniProt Q15722). In words: LTB4 Human Neutrophil (PMN) Binding Assay.

PMN LTB4 receptor, sequence (Q15722 whole entry): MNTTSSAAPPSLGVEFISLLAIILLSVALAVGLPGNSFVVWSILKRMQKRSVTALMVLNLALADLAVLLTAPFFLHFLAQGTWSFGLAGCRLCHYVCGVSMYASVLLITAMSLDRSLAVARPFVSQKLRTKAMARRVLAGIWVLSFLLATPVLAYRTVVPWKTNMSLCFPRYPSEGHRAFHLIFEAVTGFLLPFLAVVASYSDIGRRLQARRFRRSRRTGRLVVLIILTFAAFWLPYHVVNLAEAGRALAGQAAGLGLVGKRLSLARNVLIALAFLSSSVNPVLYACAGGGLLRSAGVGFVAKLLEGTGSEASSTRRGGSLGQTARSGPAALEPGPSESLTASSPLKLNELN
Experimental: Heparinized blood was placed on a ficol gradient followed by its sedimentation with dextran. […] The PMN solution was adjusted to achieve a concentration of 8 X 10^6 PMN/ml. […] Very briefly, the assay was performed as follows; [3H]LTB4 (1 nM) and test agent were placed into a 96 well microplate with filters (0.65 µm pore size). PMN solution (8 x 10^6/ml) was added and the microplate incubated for 10 min at 4° C. The microplate was then placed on Millipore filtration system; the wells washed with cold saline (3 x) and dried. The filters were removed from the microplate; placed into scintillation fluid and the concentration of [3H]LTB4 determined.

Molecule `CCc1cc(-c2ccc(F)cc2)c(O)cc1OCCCCC(C)(C)CNC(=O)c1ccc(NN=Cc2ccccc2)nc1` [IIa] registered an inhibition constant (Ki) of 8 nM.
